Laboratory results published in US8193189B2, “Quinoxaline derivatives as tyrosine kinase activity inhibitors” (Novartis AG, priority 2007, dated 2012).

Assays:
[1] = molecular target: T1, GST-JAK1(866-1154) (Homo sapiens, UniProt P23458); test: EPK JAK-family kinases profiling assay (Caliper mobility shift), JAK1; type: biochemical; conditions: ATP 40 μM, 50 nM kinase
T1 construct: GST-JAK1(866-1154); made in house
In short: (§1)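 Turnover was read as substrate/product ratio after mobility-shift capillary-like separation of each reaction, run for 60 min at 30 °C with GST-tagged kinase domain, labelled peptide and ATP, and terminated with EDTA stop buffer.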

[2] = molecular target: T2, GST-JAK2(808-1132) (Homo sapiens, UniProt O60674); test: EPK JAK-family kinases profiling assay (Caliper mobility shift), JAK2; type: biochemical; conditions: ATP 20 μM, 1.8 nM kinase
T2 construct: GST-JAK2(808-1132); purchased Invitrogen (Carlsbad, USA) #4288
T2 sequence (O60674 808-1132): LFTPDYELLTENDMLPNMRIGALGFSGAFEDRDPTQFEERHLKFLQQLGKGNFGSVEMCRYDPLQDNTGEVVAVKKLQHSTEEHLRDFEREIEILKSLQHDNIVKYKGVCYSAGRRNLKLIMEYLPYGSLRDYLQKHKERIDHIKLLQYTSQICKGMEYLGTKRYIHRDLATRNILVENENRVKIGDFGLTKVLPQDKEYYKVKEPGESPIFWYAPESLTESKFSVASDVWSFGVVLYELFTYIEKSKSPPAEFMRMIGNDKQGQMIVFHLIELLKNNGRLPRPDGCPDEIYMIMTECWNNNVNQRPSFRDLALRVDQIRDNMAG
In short: as §1

[3] = molecular target: T3, GST-JAK3(811-1124) (Homo sapiens, UniProt P52333); test: EPK JAK-family kinases profiling assay (Caliper mobility shift), JAK3; type: biochemical; conditions: ATP 80 μM, 6 nM kinase
T3 construct: GST-JAK3(811-1124); made in house
T3 sequence (P52333 811-1124): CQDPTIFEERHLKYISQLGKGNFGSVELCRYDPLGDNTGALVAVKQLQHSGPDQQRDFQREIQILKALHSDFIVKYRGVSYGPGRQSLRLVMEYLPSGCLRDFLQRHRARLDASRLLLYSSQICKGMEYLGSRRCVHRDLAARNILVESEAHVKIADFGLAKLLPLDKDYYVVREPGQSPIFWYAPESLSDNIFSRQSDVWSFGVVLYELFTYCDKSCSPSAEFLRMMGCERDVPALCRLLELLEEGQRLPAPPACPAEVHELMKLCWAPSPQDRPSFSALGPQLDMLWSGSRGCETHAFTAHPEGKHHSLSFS
In short: as §1

[4] = molecular target: T4, GST-TYK2(888-1187) (Homo sapiens, UniProt P29597); test: EPK JAK-family kinases profiling assay (Caliper mobility shift), TYK2; type: biochemical; conditions: ATP 30 μM, 40 nM kinase
T4 construct: GST-TYK2(888-1187); made in house
T4 sequence (P29597 888-1187): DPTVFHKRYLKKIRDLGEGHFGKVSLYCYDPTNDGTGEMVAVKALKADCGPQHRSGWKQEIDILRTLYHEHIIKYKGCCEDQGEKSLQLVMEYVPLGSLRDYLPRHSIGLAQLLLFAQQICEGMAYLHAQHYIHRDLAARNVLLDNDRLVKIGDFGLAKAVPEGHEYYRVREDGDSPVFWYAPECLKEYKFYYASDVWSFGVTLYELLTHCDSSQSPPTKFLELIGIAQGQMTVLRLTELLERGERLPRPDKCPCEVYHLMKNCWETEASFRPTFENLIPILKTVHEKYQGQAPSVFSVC
In short: as §1

[5] = test system: JAK/STAT pathway (JAK1/JAK2-dependent nuclear translocation of STAT1-GFP); test: Inhibition of the JAK/STAT pathway: IFN-γ stimulated nuclear translocation of STAT1-GFP in HT1080 fibrosarcoma cells; type: cell-based; conditions: Homo sapiens, HT-1080; HT1080 STAT1-GFP cells, 100 ng/ml IFN-γ 2 hours, compound added 30 min before; read-out: STAT1translo IC50
In short: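 HT1080 cells stably expressing STAT1-GFP, compounds added 30 min before IFN-γ stimulation at final 10 μM down to 0.003 μM (0.1% DMSO). Nuclear-cytoplasmic GFP intensity differential quantified by automated imaging with Hoechst nuclear mask, ≥1000 cells per well, averaged per well.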

T1 sequence (P23458 866-1154): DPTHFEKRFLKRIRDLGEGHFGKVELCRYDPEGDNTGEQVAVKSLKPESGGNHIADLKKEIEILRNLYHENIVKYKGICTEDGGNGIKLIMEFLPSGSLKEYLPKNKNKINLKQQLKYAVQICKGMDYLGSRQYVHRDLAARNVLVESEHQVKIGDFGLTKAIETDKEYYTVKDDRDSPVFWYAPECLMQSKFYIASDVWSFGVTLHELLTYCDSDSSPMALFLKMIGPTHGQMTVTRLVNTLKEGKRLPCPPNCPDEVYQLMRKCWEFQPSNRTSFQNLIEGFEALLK

SMILES | IC50 [1] [nM] | IC50 [2] [nM] | IC50 [3] [nM] | IC50 [4] [nM] | IC50 [5] [nM]
CCN1CCN(Cc2ccc(-c3cnc4cccc(-c5cc(F)c(CN6CCOCC6)c(F)c5)c4n3)cc2C)CC1 [Example 92, 8-(3,5-Difluoro-4-morpholin-4-ylmethyl-phenyl)-2-[4-(4-ethyl-piperazin-1-ylmethyl)-3-methyl-phenyl]-quinoxaline] | 1380 | 43 | 4900 | 3650 | 2140
CCN1CCN(Cc2ccc(-c3cnc4cccc(-c5ccc(CN6CCOCC6)c(F)c5)c4n3)cc2C)CC1 [Example 93, 2-[4-(4-Ethyl-piperazin-1-ylmethyl)-3-methyl-phenyl]-8-(3-fluoro-4-morpholin-4-ylmethyl-phenyl)-quinoxaline] | 185 | 22 | 1250 | 670 | 3010
Cc1cc(-c2cnc3cccc(-c4cc(F)c(CN5CCOCC5)c(F)c4)c3n2)ccc1C(=O)N(C)CCN(C)C [Example 94, 4-[8-(3,5-Difluoro-4-morpholin-4-ylmethyl-phenyl)-quinoxalin-2-yl]-N-(2-dimethylamino-ethyl)-2,N-dimethyl-benzamide] | 455 | 27 | 2150 | 985 | 1530
Cc1cc(-c2cnc3cccc(-c4cc(F)c(CN5CCS(=O)(=O)CC5)c(F)c4)c3n2)ccc1C(=O)N(C)CCN(C)C [Example 95, N-(2-Dimethylamino-ethyl)-4-{8-[4-(1,1-dioxido-thiomorpholin-4-ylmethyl)-3,5-difluoro-phenyl]-quinoxalin-2-yl}-2,N-dimethyl-benzamide] | 18 | < 3 | 73.5 | 40 | 105
O=S1(=O)CCN(Cc2c(F)cc(-c3cccc4ncc(-c5cnn(C6CCNCC6)c5)nc34)cc2F)CC1 [Example 96, 8-[4-(1,1-Dioxido-thiomorpholin-4-ylmethyl)-3,5-difluoro-phenyl]-2-(1-piperidin-4-yl-1H-pyrazol-4-yl)-quinoxaline] | 53 | < 3 | 260 | 50.5 | 35.5
O=C(c1c(F)cc(-c2cccc3ncc(-c4cnn(C5CCNCC5)c4)nc23)cc1F)N1CCOCC1 [Example 97, {2,6-Difluoro-4-[3-(1-piperidin-4-yl-1H-pyrazol-4-yl)-quinoxalin-5-yl]-phenyl}-morpholin-4-yl-methanone] | 720 | 19.5 | 9150 | 510 | 495
CS(=O)(=O)c1ccc(-c2cccc3ncc(-c4cnn(C5CCNCC5)c4)nc23)cc1F [Example 99, 8-(3-Fluoro-4-methanesulfonyl-phenyl)-2-(1-piperidin-4-yl-1H-pyrazol-4-yl)-quinoxaline] | 870 | 22 | 4850 | 805 | 1360
Cc1cc(-c2cnc3cccc(-c4cc(F)c(CN5CCS(=O)(=O)CC5)c(F)c4)c3n2)ccc1C(=O)N1CCC(N(C)C)CC1 [Example 102, (4-Dimethylamino-piperidin-1-yl)-(4-{8-[4-(1,1-dioxido-thiomorpholin-4-ylmethyl)-3,5-difluoro-phenyl]-quinoxalin-2-yl}-2-methyl-phenyl)-methanone] | 1220 | 74 | 5330 | 2730 | 31.5
CCN1CCN(c2ccc(-c3cnc4cccc(-c5cc(F)c(CN6CCOCC6)c(F)c5)c4n3)cc2C)CC1 [Example 103, 8-(3,5-Difluoro-4-morpholin-4-ylmethyl-phenyl)-2-[4-(4-ethyl-piperazin-1-yl)-3-methyl-phenyl]-quinoxaline] | 1150 | 30.5 | 3600 | 1200 | 824
COc1cc(-c2cnc3cccc(-c4cc(F)c(CN5CCOCC5)c(F)c4)c3n2)ccc1N1CCN(C)CC1 [Example 104, 8-(3,5-Difluoro-4-morpholin-4-ylmethyl-phenyl)-2-[3-methoxy-4-(4-methyl-piperazin-1-yl)-phenyl]-quinoxaline] | 52 | < 3 | 390 | 130 | 420
COc1cc(-c2cnc3cccc(-c4ccc(C(=O)N5CCOCC5)c(C)c4)c3n2)ccc1N1CCN(C)CC1 [Example 105, (4-{3-[3-Methoxy-4-(4-methyl-piperazin-1-yl)-phenyl]-quinoxalin-5-yl}-2-methyl-phenyl)-morpholin-4-yl-methanone] | 810 | 32 | 1800 | 985 | 895
COc1cc(-c2cnc3cccc(-c4cc(F)c(CN5CCS(=O)(=O)CC5)c(F)c4)c3n2)ccn1 [Example 106, 8-[4-(1,1-Dioxido-thiomorpholin-4-ylmethyl)-3,5-difluoro-phenyl]-2-(2-methoxy-pyridin-4-yl)-quinoxaline] | 365 | 82 | 195 | 1970 | 202
CN1CCN(c2ccc(-c3cnc4cccc(-c5cc(F)c(CN6CCOCC6)c(F)c5)c4n3)cn2)CC1 [Example 107, 8-(3,5-Difluoro-4-morpholin-4-ylmethyl-phenyl)-2-[6-(4-methyl-piperazin-1-yl)-pyridin-3-yl]-quinoxaline] | 1350 | 95.5 | 9800 | 2950 | 2470
CN1CCN(c2ccc(-c3cnc4cccc(-c5cc(F)c(CN6CCS(=O)(=O)CC6)c(F)c5)c4n3)cn2)CC1 [Example 108, 8-[4-(1,1-Dioxido-thiomorpholin-4-ylmethyl)-3,5-difluoro-phenyl]-2-[6-(4-methyl-piperazin-1-yl)-pyridin-3-yl]-quinoxaline] | 254 | 24.5 | 2400 | 417 | 150
CN(C)CCN(C)C(=O)c1ccc(-c2cnc3cccc(-c4cc(F)c(CN5CCOCC5)c(F)c4)c3n2)cn1 [Example 110, 5-[8-(3,5-Difluoro-4-morpholin-4-ylmethyl-phenyl)-quinoxalin-2-yl]-pyridine-2-carboxylic acid (2-dimethylamino-ethyl)-methyl-amide] | 5550 | 575 | > 10000 | 9300 | 1590
CN(C)CCN(C)C(=O)c1ccc(-c2cnc3cccc(-c4cc(F)c(CN5CCS(=O)(=O)CC5)c(F)c4)c3n2)cn1 [Example 111, 5-{8-[4-(1,1-Dioxido-thiomorpholin-4-ylmethyl)-3,5-difluoro-phenyl]-quinoxalin-2-yl}-pyridine-2-carboxylic acid (2-dimethylamino-ethyl)-methyl-amide] | 920 | 105 | 9300 | 1700 | 1230
Cc1cc(-c2cnc3cccc(-c4cc(F)c(CN5CCOCC5)c(F)c4)c3n2)cnc1C(=O)N(C)CCN(C)C [Example 112, 5-[8-(3,5-Difluoro-4-morpholin-4-ylmethyl-phenyl)-quinoxalin-2-yl]-3-methyl-pyridine-2-carboxylic acid (2-dimethylamino-ethyl)-methyl-amide] | 5350 | 320 | > 10000 | > 10000 | 13600
